The values that follow come from US20260199213A1, “PEPTIDE HAVING ACTIVITY OF IMPROVING STATE OF SKIN, AND USE THEREOF” (CAREGEN CO., LTD., priority 2022, published 2026).

Common to all, as to type: cell-based
For one assay, the system named is aquaporin-3 (AQP3). As to the kind of experiment: AQP3 expression by RT-PCR in HaCaT cells. Particulars: 10 μM, 50 μM or 1000 μM peptide, 24 hours. The protocol: In this example, the aim was to confirm the effect of the peptides according to an example on strengthening the skin barrier, by evaluating the expression levels of sirtuin-1 (SIRT-1) or aquaporin-3 (AQP3).
Specifically, HaCaT cells were seeded in a 6-well plate at a density of 3×10^5 cells/well and cultured for 24 hours. Next, the cells were washed once with serum-free DMEM media, and 10 μM, 50 μM or 1000 μM of the peptide consisting of the amino acid sequence of SEQ ID NO: 1 was dispensed into 1 mL of the serum-free media, and cultured in a CO2 incubator at 37° C. for 24 hours. Next, the culture was washed twice with PBS, and RNA was isolated from the culture using easy blue (iNtRON, Cat. No.: 17061, Korea). Next, using an RT kit (Enzynomics, Cat. NO.: RT200, Korea), the isolated RNA was reverse transcribed to synthesize the respective cDNA. Next, using the synthesized 1 ug cDNA, primers for SIRT-1 or AQP3, and a PCR kit (Enzynomics, Cat. No.: P581T, Korea), polymerase chain reaction (PCR) was performed. Meanwhile, in this example, an untreated group was used as the control group, and a group to which EGF was added was used as a positive control group, the nucleotide sequences of the primers used in this example are shown in Table 3 below.

A further assay concerns Col1a1. Description: Col1a1 expression by RT-PCR in NIH3T3 cells. The conditions noted are these: 10 μM, 50 μM or 1000 μM peptide, 24 hours, vs untreated group. The protocol: (§1) In this example, the aim was to confirm the effect of the peptide according to an example on improving endogenous skin aging, including improvement of wrinkles and enhancement of elasticity, etc., by evaluating the expression levels of collagen type 1 (Col1a1), fibronectin, elastin, and hyaluronic acid, which are known components of the dermis.
Specifically, NIH3T3 cells were seeded in a 6-well plate at a density of 3×10^5 cells/well and cultured for 24 hours. Next, the cells were washed once with serum-free DMEM media, and 10 μM, 50 μM or 1000 μM of a peptide consisting of an amino acid sequence of SEQ ID NO: 1 was dispensed into 1 mL of the serum-free media, and cultured in a CO2 incubator at 37° C. for 24 hours. Next, the culture was washed twice with PBS, and RNA was isolated from the culture using easy blue (iNtRON, Cat. No.: 17061, Korea). Next, using an RT kit (Enzynomics, Cat. NO.: RT200, Korea), the isolated RNA was reverse transcribed to synthesize the respective cDNA. Next, using the synthesized 1 ug cDNA, primers for Colla1, fibronectin, or elastin, and a PCR kit (Enzynomics, Cat. No.: P581T, Korea), polymerase chain reaction (PCR) was performed. […]

The test system of assay [1] is reactive oxygen species in NIH3T3 cells. As to the kind of experiment: Reactive oxygen species increased by ultraviolet rays in NIH3T3 cells (DCF-DA, flow cytometry). Particulars: fibroblasts (NIH3T3); 6 J/cm^2 UV; 10 μM, 50 μM or 1000 μM peptide; 24 hours. The protocol:
In this example, the aim was to confirm the effect of the peptide according to an embodiment on the antioxidant effect in damaged skin, by evaluating the change in the level of reactive oxygen species in skin cells increased by ultraviolet irradiation.
Specifically, NIH3T3 cells or HaCaT cells were seeded in a 6-well plate at a density of 5×10^5 cells/well and cultured for 24 hours. Next, the cells were washed once with serum-free DMEM media, and 10 μM, 50 μM or 1000 μM of the peptide consisting of the amino acid sequence of SEQ ID NO: 1 was dispensed into 1 mL of the serum-free media, and cultured in a CO2 incubator at 37° C. for 1 hour. Next, the above culture was transferred to an e-tube, mixed with 1 ml of PBS, and dispensed into a well plate. Next, using a UV irradiator (VILBER LOURMAT, Cat No.: 3102-BSU, France), 6 J/cm^2 ultraviolet rays were irradiated to NIH3T3 cells, and 15 mJ/cm^2 ultraviolet rays were irradiated to HaCaT cells. Next, the PBS in the well plate was removed, 900 μL of the culture medium in which the peptides were dispensed was added, and the plate was cultured in a CO2 incubator at 37° C. for 24 hours. […] After washing the centrifuged cells with PBS, FL1 fluorescence values were measured through flow cytometry (FACS, BD, USA). […]
Background: Flow cytometry measures light scatter and fluorescence of single cells or particles in a stream.

The subject of the next assay is fibronectin. As to the kind of experiment: Fibronectin expression by RT-PCR in NIH3T3 cells. How it is done: as §1
Specifically, NIH3T3 cells were seeded in a 6-well plate at a density of 3×10^5 cells/well and cultured for 24 hours. Next, the cells were washed once with serum-free DMEM media, and 10 μM, 50 μM or 1000 μM of a peptide consisting of an amino acid sequence of SEQ ID NO: 1 was dispensed into 1 mL of the serum-free media, and cultured in a CO2 incubator at 37° C. for 24 hours. Next, the culture was washed twice with PBS, and RNA was isolated from the culture using easy blue (iNtRON, Cat. No.: 17061, Korea). Next, using an RT kit (Enzynomics, Cat. NO.: RT200, Korea), the isolated RNA was reverse transcribed to synthesize the respective cDNA. Next, using the synthesized 1 ug cDNA, primers for Colla1, fibronectin, or elastin, and a PCR kit (Enzynomics, Cat. No.: P581T, Korea), polymerase chain reaction (PCR) was performed. Meanwhile, in this example, an untreated group was used as a control group, and a group to which […] was added was used as a positive control group, the nucleotide sequences of the primers used in this example are shown in Table 2 below.
In this example, the aim was to more specifically compare the effects of peptides according to an embodiment on improving intrinsic skin aging. To this end, a peptide consisting of an amino acid sequence of SEQ ID NO: 2, 3, or 4 having a sequence similar to a peptide according to an embodiment was set as a comparison group, and the expression levels of fibronectin and elastin were evaluated and compared in the same manner as in Example 2-1. […]

In the case of GPRGDP [SEQ ID NO: 1], the “expression of skin barrier factor AQP3” value with aquaporin-3 (AQP3) is on record as “increases”. In addition, in the assay with Col1a1, the “expression of Col1a1” value is on record as “increased”. Besides, the “level of reactive oxygen species increased by ultraviolet irradiation” value in assay [1] is “reduced”. Besides, the expression of fibronectin entry in the assay with fibronectin (10 μM, 50 μM or 1000 μM peptide, 24 hours, PCR, vs untreated group) is listed as “increased”. In the assay with fibronectin (comparison experiment, FIG. 5 and FIG. 6), the “expression of fibronectin (Example 2-2)” value is given as “increased”. Further, in the assay on fibronectin (vs peptides of SEQ ID NO: 2, 3, or 4 (50 μM, 100 μM)), the “fibronectin expression effect compared to the comparison group” value was “superior”.
